According to patent US11597708B2, “Inhibitors of heat shock factors and uses thereof” (HSF Pharmaceuticals SA, priority 2016, dated 2023):
Where a name gives a salt, the structure may show the parent alone. Read-outs that look alike come from different tables or passages of the source. One block for each molecule: values may come before it.

Assays:
HSE DNA-binding activity = biological target: T1, HSE DNA-binding activity (Homo sapiens, UniProt Q00613); assay: EMSA using extracts of heat-treated HeLa cells, in the presence of IHSF; type: biochemical; conditions: extracts of HeLa cells heat-treated at 43° C. for 30 min; concentrations as high as about 0.5 mM
T1 construct: functionally linked to an hsp70b promoter and therefore controlled by endogenous HSF1; endogenous in cells; host or cells: HeLa cells / HeLa-derived cell line Z74
T1 sequence (Q00613 1-529): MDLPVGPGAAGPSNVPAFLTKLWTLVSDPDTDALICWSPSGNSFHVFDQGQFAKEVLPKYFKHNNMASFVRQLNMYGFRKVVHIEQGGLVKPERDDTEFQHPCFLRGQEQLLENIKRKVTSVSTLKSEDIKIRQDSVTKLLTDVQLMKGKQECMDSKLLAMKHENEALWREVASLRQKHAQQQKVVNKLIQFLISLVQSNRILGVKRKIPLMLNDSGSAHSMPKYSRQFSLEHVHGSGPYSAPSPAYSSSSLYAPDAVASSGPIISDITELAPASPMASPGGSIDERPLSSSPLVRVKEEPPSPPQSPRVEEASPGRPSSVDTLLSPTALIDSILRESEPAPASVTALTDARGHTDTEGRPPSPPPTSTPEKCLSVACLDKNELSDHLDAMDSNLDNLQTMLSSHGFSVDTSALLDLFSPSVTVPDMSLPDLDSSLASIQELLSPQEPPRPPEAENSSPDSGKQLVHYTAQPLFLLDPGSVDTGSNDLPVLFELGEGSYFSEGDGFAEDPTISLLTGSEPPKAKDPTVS
Description: Electrophoretic mobility shift assays (EMSA) using a radiolabeled HSE DNA probe were carried out to assess HSF1 DNA-binding activity in extracts of heat-treated (43° C./30 min) HeLa cells that had been exposed to different concentrations of compounds 058 or 115 (FIG. 3A, top panels). […] HSF1 degradation correlated well with the observed decrease in DNA-binding activity. Therefore, HSF1 degradation provides a sufficient explanation for the reduced HSE DNA-binding activity in cells treated with IHSF 058. […] EMSA were also carried out using extracts of HeLa cells that had been heat-treated at 43° C. for 30 min.

HSF1 = biological target: T2, HSF1 (Homo sapiens, UniProt Q00613); assay: Z74 cell-based reporter assay: heat-induced RLuc expression controlled by endogenous HSF1; conditions: for IC50: inhibition of HSF1 activity [RLuc]; for inhibition at 12.5 µM: read-out: Inhibition of HSF1 activity at 12.5 μM IHSF [RLuc] (%); for inhibition at 25 µM: read-out: Inhibition of HSF1 activity at 25 μM IHSF [RLuc] (%)
T2 construct: functionally linked to an hsp70b promoter and therefore controlled by endogenous HSF1; endogenous in cells; host or cells: HeLa cells / HeLa-derived cell line Z74
T2 sequence (Q00613 1-529): T1 sequence (Q00613 1-529)
Excerpt: For screening this sublibrary, a cell-based assay was developed. We opted for a cell-based assay, because a cell-free assay would have had to be a DNA-binding assay. Such an assay would have limited discovery to molecules capable of interfering with the DNA-binding function of HSF1. This was thought to be too narrow a focus, considering that three of the four cavities identified in the HSF1 DNA-binding domain are not near the DNA interaction region. A straightforward cell-based assay, in which a HSF1-responsive gene would be assayed, was considered likely to be over-inclusive. Compounds would be scored as hits that inhibit any factor that is involved in HSF1 activation or prevents HSF1 deactivation. These factors include protein kinases, activators of protein phosphatases, factors affecting HSF1 mRNA stability, HSP90, HDAC6, etc. For developing a more discriminating cell-based assay, advantage was taken of the modular nature of HSF1. […] The cell-based assay developed (see below for the particular format employed) compared transactivation by wild type HSF1 and chimeric HSF1 in cells exposed to an HSF1-activating heat treatment in the presence of a sublibrary compound. A compound was scored as a hit, if it inhibited the activity of wild type HSF1 but not of chimeric HSF1.
The cell-based assay made use of HeLa-derived cell line Z74 that stably contains a gene for chimeric transcription factor LexA-(human) HSF1 under the control of a CMV early promoter, a firefly luciferase (flue) gene driven by a promoter responsive to the latter chimeric transcription factor and a Renilla luciferase (rluc) gene functionally linked to an hsp70b promoter and therefore controlled by endogenous HSF1 (FIG. 1A). As is shown in FIGS. 1B & C, the reporter genes responded similarly to heat dose, i.e., their activation depended on both duration of heat exposure and temperature of the exposure. […] Depletion of HSF1 (and LexA-HSF1) by siRNA supported the notion that this stress regulation is mediated by HSF1 (and LexA-HSF1). Therefore, the Z74 line was well suited for use in a screening assay aimed at discovering molecules that inhibit heat-induced HSF1 activity through interaction with the transcription factor's DNA-binding domain.
The compounds of the afore-mentioned biased sublibrary were screened in cell line Z74 at 12.5 and 25 μM concentrations. Typically, Z74 cultures in 96-well plates were exposed to compound or vehicle for 2 h, heat-treated at 43.0° C. for 30 min, and incubated further for 6 h at 37° C. to allow for accumulation of the luciferases. RLuc and FLuc activities were determined, typically using the Dual-Glo® Luciferase Assay System (Promega Corp., Madison, Wis.), and reading luciferase light counts in a Wallac Microbeta Trilux-1450 Luminometer (PerkinElmer, Waltham, Mass.). IHSF 001 was one of two library compounds that inhibited RLuc expression but not FLuc expression in heat-treated Z74 cells (Table 1; FIG. 2A). Therefore, IHSF 001 is an inhibitor of HSF1 function that specifically acts through the HSF1 DNA-binding domain. […] A corroborating experiment utilized a cell line containing an hsp70b promoter-driven fluc gene. […] IHSF 001 is (E)-ethyl 4-oxo-4-(thiazol-2-ylamino)but-2-enoate. The compound can be obtained from commercial sources (e.g., AKE-PB-90340538, Akos).

[1] = Z74 cells, 12.5 μM IHSF, negative values marked *: compound enhanced rLuc activity
[2] = Z74 cells, 25 μM IHSF, 2 h exposure, 43° C. 30 min, 6 h at 37° C.

- HSE DNA-binding activity (EMSA) in the presence of IHSF (HSE DNA-binding activity): no reduction
- IC50 (HSF1; Z74 cells): 7 µM
- inhibition at 12.5 µM (HSF1; [1]): 69%
- inhibition at 25 µM (HSF1; [2]): 83%
SMILES: CCOC(=O)/C=C/C(=O)Nc1nc(C)cs1 [IHSF 011, (E)-3-(4-Methyl-thiazol-2-ylcarbamoyl)-acrylic acid ethyl ester]

- HSE DNA-binding activity (EMSA) in the presence of IHSF (HSE DNA-binding activity): no reduction
- inhibition at 12.5 µM (HSF1; [1]): 53%
- inhibition at 25 µM (HSF1; [2]): 85%
SMILES: CCOC(=O)/C=C/C(=O)Nc1ccnc(-c2ccccc2)c1 [IHSF 049, (E)-3-(2-Phenyl-pyridin-4-ylcarbamoyl)-acrylic acid ethyl ester]

- HSE DNA-binding activity (EMSA) in the presence of IHSF (HSE DNA-binding activity): no reduction
- inhibition at 12.5 µM (HSF1; [1]): 40%
- inhibition at 25 µM (HSF1; [2]): 61%
SMILES: CCOC(=O)/C=C/C(=O)Nc1ccnc2ccccc12 [IHSF 050, (E)-3-(Quinolin-4-ylcarbamoyl)-acrylic acid ethyl ester]

- HSE DNA-binding activity (EMSA) in the presence of IHSF (HSE DNA-binding activity): no reduction
- IC50 (HSF1; Z74 cells): 9.6 µM
- inhibition at 12.5 µM (HSF1; [1]): 72%
- inhibition at 25 µM (HSF1; [2]): 92%
SMILES: CCOC(=O)/C=C/C(=O)Nc1nc(C)c(-c2ccccc2)s1 [IHSF 051, (E)-3-(4-Methyl-5-phenyl-thiazol-2-ylcarbamoyl)-acrylic acid ethyl ester]

- HSE DNA-binding activity (EMSA) in the presence of IHSF (HSE DNA-binding activity): no reduction
- inhibition at 12.5 µM (HSF1; [1]): 40%
- inhibition at 25 µM (HSF1; [2]): 65%
SMILES: CCOC(=O)/C=C/C(=O)Nc1ncc(C#N)s1 [IHSF 057, (E)-3-(5-Cyano-thiazol-2-ylcarbamoyl)-acrylic acid ethyl ester]

- inhibition at 12.5 µM (HSF1; [1]): 55%
- inhibition at 25 µM (HSF1; [2]): 71%
SMILES: CCOC(=O)/C=C/C(=O)Nc1ccnc(-c2cccc(C)c2)c1 [IHSF 080, (E)-3-(2-m-Tolyl-pyridin-4-ylcarbamoyl)-acrylic acid ethyl ester]

- inhibition at 12.5 µM (HSF1; [1]): 24%
- inhibition at 25 µM (HSF1; [2]): 34%
SMILES: CCOC(=O)/C=C/C(=O)Nc1ccncc1C [IHSF 083, (E)-3-(3-Methyl-pyridin-4-ylcarbamoyl)-acrylic acid ethyl ester]

- inhibition at 12.5 µM (HSF1; [1]): 47%
- inhibition at 25 µM (HSF1; [2]): 78%
SMILES: CCOC(=O)/C=C/C(=O)Nc1ccnc(-c2cccnc2)c1 [IHSF 086, (E)-3-([2,3′]Bipyridmyl-4-ylcarbamoyl)-acrylic acid ethyl ester]

- IC50 (HSF1; Z74 cells): 18 µM
- inhibition at 12.5 µM (HSF1; [1]): 17%
- inhibition at 25 µM (HSF1; [2]): 95%
SMILES: CCOC(=O)/C=C/C(=O)N(CCc1ccncc1)c1nccs1 [IHSF 099, (E)-3-[(2-Pyridin-4-yl-ethyl)-thiazol-2-yl-carbamoyl]-acrylic acid ethyl ester]

- IC50 (HSF1; Z74 cells): > 25 µM
- inhibition at 12.5 µM (HSF1; [1]): -30%
- inhibition at 25 µM (HSF1; [2]): 48%
SMILES: CCOC(=O)/C=C/C(=O)N(CCN1CCOCC1)c1nccs1 [IHSF 101, (E)-3-[(2-Morpholin-4-yl-ethyl)-thiazol-2-yl-carbamoyl]-acrylic acid ethyl ester]

- IC50 (HSF1; Z74 cells): 10.6 µM
- inhibition at 12.5 µM (HSF1; [1]): 62%
- inhibition at 25 µM (HSF1; [2]): 92%
SMILES: CCOC(=O)/C=C/C(=O)Nc1nc(CC)c(-c2ccccc2)s1 [IHSF 107, (E)-3-(4-Ethyl-5-phenyl-thiazol-2-ylcarbamoyl)-acrylic acid ethyl ester]

- IC50 (HSF1; Z74 cells): 19.6 µM
- inhibition at 12.5 µM (HSF1; [1]): -6%
- inhibition at 25 µM (HSF1; [2]): 89%
SMILES: CCOC(=O)/C=C/C(=O)N(CCc1cn(C)cn1)c1nccs1 [IHSF 108]

- IC50 (HSF1; Z74 cells): 11.2 µM
- inhibition at 12.5 µM (HSF1; [1]): 53%
- inhibition at 25 µM (HSF1; [2]): 88%
SMILES: CCOC(=O)/C=C/C(=O)Nc1nc(C(N)=O)c(-c2ccccc2)s1 [IHSF 109, (E)-3-(4-Carbamoyl-5-phenyl-thiazol-2-ylcarbamoyl)-acrylic acid ethyl ester]

- IC50 (HSF1; Z74 cells): > 25 µM
- inhibition at 12.5 µM (HSF1; [1]): 13%
- inhibition at 25 µM (HSF1; [2]): 26%
SMILES: CCOC(=O)/C=C/C(=O)N(CCc1ccccn1)c1nccs1 [IHSF 112, (E)-3-[(2-Pyridin-2-yl-ethyl)-thiazol-2-yl-carbamoyl]-acrylic acid ethyl ester]

Further lines, the molecule ahead of its results:

SMILES: CCOC(=O)/C=C/C(=O)Nc1nc(C)c(C)s1 [IHSF 052, (E)-3-(4,5-Dimethyl-thiazol-2-ylcarbamoyl)-acrylic acid ethyl ester]
- HSE DNA-binding activity (EMSA) in the presence of IHSF (HSE DNA-binding activity): no reduction
- IC50 (HSF1; Z74 cells): 7.4 µM
- inhibition at 12.5 µM (HSF1; [1]): 57%
- inhibition at 25 µM (HSF1; [2]): 71%

SMILES: CCOC(=O)/C=C/C(=O)Nc1ccnc(-c2ccc(C)cc2)c1 [IHSF 081, (E)-3-(2-p-Tolyl-pyridin-4-ylcarbamoyl)-acrylic acid ethyl ester formic acid salt]
- inhibition at 12.5 µM (HSF1): 42%
- inhibition at 25 µM (HSF1): 65%

SMILES: CCOC(=O)/C=C/C(=O)Nc1cc(C)nc(C)c1 [IHSF 082, (E)-3-(2,6-Dimethyl-pyridin-4-ylcarbamoyl)-acrylic acid ethyl ester]
- inhibition at 12.5 µM (HSF1; [1]): 58%
- inhibition at 25 µM (HSF1; [2]): 91%

SMILES: O=C(/C=C/c1ncccn1)Nc1nccs1 [IHSF 088, (E)-3-(Pyrimidin-2-yl)-N-(thiazol-2-yl)acrylamide]
- inhibition at 12.5 µM (HSF1; [1]): 25%
- inhibition at 25 µM (HSF1; [2]): 31%

SMILES: O=C(/C=C/c1ncno1)Nc1nccs1 [IHSF 089, (E)-3-(1,2,4-Oxadiazol-5-yl)-N-(thiazol-2-yl)acrylamide]
- IC50 (HSF1; Z74 cells): 17.9 µM
- inhibition at 12.5 µM (HSF1; [1]): 41%
- inhibition at 25 µM (HSF1; [2]): 61%

SMILES: O=C(/C=C/C1=NCCCO1)Nc1nccs1 [IHSF 090, (E)-3-(5,6-Dihydro-4H-[1,3]oxazin-2-yl)-N-thiazol-2-yl-acrylamide]
- IC50 (HSF1; Z74 cells): 5.4 µM
- inhibition at 12.5 µM (HSF1; [1]): 78%
- inhibition at 25 µM (HSF1; [2]): 98%

SMILES: O=C(/C=C/c1nnco1)Nc1nccs1 [IHSF 091, (E)-3-(1,3,4-Oxadiazol-2-yl)-N-(thiazol-2-yl)acrylamide]
- IC50 (HSF1; Z74 cells): > 25 µM
- inhibition at 12.5 µM (HSF1; [1]): 22%
- inhibition at 25 µM (HSF1; [2]): 27%

SMILES: O=C(/C=C/C1=NCCO1)Nc1nccs1 [IHSF 092, (E)-3-(4,5-Dihydro-oxazol-2-yl)-N-thiazol-2-yl-acrylamide]
- IC50 (HSF1; Z74 cells): 4.7 µM
- inhibition at 12.5 µM (HSF1; [1]): 90%
- inhibition at 25 µM (HSF1; [2]): 99%

SMILES: CCCC(=O)/C=C/C(=O)Nc1nccs1 [IHSF 095, (E)-4-Oxo-N-(thiazol-2-yl)hept-2-enamide]
- inhibition at 12.5 µM (HSF1; [1]): 6%
- inhibition at 25 µM (HSF1; [2]): 44%

SMILES: CCOC(=O)/C=C/C(=O)Nc1nc(C(=O)OC)c(-c2ccccc2)s1 [IHSF 105, 2-((E)-3 -Ethoxycarbonyl-acryloylamino)-5-phenyl-thiazole-4-carboxylic acid methyl ester]
- IC50 (HSF1; Z74 cells): 10.8 µM
- inhibition at 12.5 µM (HSF1; [1]): 69%
- inhibition at 25 µM (HSF1; [2]): 96%
